In test [1] the target is Growth hormone secretagogue receptor type 1 (Homo sapiens, UniProt Q92847).
In test [2] the target is T1, Prostaglandin G/H synthase 1 (Rattus norvegicus, UniProt Q63921).
T1 sequence (Q63921 whole entry): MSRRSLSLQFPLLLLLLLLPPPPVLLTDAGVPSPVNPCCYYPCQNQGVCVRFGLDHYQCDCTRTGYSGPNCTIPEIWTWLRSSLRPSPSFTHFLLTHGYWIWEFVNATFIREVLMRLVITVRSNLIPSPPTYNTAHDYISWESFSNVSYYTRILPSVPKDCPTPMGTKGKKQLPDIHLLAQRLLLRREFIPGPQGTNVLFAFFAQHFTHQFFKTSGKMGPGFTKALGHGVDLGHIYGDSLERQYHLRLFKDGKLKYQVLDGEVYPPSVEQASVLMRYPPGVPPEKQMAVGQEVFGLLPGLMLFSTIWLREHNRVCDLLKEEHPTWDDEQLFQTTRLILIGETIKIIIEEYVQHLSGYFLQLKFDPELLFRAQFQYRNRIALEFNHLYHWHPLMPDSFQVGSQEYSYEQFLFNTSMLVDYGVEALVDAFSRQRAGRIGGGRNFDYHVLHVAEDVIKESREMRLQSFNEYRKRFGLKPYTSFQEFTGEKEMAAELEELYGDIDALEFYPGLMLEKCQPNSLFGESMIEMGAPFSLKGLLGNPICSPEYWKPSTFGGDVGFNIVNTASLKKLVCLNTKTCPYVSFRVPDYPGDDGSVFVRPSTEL
In kind it is functional.

The target in test [3] is Adenosine receptor A2a (Homo sapiens, UniProt P29274).
For test [4], the target named is Mu-type opioid receptor (Homo sapiens, UniProt P35372). Put plainly: biochemical. In kind it is functional.
The target in test [5] is Cannabinoid receptor 1 (Homo sapiens, UniProt P21554). The format is functional, cell-based.
The target of test [6] is T2, Muscarinic acetylcholine receptor M2 (Homo sapiens, UniProt P08172).
T2 sequence (P08172 whole entry): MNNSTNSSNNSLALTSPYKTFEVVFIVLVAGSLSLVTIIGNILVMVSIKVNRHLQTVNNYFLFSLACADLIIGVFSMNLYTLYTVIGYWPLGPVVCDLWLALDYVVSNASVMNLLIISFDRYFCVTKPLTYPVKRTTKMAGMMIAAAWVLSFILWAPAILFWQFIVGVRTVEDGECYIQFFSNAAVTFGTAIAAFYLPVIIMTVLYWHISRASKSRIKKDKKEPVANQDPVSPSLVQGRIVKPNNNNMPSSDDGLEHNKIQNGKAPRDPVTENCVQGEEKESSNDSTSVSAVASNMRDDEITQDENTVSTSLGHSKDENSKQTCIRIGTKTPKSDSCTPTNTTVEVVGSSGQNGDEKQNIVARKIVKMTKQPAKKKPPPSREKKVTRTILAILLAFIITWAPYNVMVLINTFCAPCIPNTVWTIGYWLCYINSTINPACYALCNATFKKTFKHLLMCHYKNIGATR
In kind it is functional, cell-based.

Test [7] addresses T3, Alpha-1A adrenergic receptor (Homo sapiens, UniProt P35348).
T3 sequence (P35348 whole entry): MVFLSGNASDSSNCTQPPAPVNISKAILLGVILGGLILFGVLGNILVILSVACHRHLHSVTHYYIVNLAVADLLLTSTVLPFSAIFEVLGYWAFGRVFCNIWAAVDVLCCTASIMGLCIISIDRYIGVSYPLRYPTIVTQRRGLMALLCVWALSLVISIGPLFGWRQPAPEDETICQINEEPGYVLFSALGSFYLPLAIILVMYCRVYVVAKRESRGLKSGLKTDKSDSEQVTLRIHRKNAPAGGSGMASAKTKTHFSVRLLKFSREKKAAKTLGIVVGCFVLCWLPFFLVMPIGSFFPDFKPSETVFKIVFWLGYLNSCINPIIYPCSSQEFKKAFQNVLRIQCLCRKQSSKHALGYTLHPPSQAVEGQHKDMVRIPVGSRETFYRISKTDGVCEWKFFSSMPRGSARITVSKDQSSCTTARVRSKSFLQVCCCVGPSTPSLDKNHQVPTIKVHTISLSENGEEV
In kind it is functional, cell-based.

In test [8] the target is Gamma-aminobutyric acid receptor subunit alpha-1 (Rattus norvegicus, UniProt P62813).
In test [9] the target is T4, Glucocorticoid receptor (Homo sapiens, UniProt P04150).
T4 sequence (P04150 whole entry): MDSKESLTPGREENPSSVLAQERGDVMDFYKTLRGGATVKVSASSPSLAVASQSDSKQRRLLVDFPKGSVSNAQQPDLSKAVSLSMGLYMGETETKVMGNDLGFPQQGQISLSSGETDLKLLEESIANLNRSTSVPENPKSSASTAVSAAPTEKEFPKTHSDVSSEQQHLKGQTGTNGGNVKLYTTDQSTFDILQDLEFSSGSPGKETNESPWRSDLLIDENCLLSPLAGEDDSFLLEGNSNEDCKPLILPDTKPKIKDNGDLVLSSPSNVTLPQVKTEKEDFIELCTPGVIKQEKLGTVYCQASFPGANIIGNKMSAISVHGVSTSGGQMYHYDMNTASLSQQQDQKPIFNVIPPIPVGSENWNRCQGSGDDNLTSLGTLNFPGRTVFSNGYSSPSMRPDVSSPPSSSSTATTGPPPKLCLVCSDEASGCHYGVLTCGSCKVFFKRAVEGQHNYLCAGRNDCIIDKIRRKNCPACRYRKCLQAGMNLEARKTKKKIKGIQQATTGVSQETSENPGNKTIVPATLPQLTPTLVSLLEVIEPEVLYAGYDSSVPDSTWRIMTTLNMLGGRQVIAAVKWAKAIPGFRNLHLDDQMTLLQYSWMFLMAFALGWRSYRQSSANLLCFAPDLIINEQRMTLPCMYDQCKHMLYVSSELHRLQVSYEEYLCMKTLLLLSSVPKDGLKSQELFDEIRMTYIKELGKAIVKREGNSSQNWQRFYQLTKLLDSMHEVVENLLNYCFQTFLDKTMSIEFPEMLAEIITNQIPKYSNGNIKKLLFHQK

Test [10] concerns the target Glutamate receptor ionotropic, NMDA 1 (Rattus norvegicus, UniProt P35439).
Further: assay procedure not described here.

Chain of Cannabinoid receptor 1 (P21554 whole entry): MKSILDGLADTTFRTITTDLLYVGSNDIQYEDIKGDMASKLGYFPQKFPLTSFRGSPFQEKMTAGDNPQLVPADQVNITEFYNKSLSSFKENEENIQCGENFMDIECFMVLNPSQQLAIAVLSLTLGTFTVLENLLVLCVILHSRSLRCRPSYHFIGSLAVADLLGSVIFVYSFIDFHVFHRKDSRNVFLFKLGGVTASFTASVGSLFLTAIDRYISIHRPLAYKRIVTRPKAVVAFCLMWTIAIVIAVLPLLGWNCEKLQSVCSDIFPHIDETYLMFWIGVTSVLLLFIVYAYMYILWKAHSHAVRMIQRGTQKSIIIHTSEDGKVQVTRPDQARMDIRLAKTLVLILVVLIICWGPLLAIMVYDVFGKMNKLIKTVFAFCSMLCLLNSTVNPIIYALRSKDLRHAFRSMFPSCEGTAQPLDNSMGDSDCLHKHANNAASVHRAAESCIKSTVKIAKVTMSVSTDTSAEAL
Chain of Adenosine receptor A2a (P29274 whole entry): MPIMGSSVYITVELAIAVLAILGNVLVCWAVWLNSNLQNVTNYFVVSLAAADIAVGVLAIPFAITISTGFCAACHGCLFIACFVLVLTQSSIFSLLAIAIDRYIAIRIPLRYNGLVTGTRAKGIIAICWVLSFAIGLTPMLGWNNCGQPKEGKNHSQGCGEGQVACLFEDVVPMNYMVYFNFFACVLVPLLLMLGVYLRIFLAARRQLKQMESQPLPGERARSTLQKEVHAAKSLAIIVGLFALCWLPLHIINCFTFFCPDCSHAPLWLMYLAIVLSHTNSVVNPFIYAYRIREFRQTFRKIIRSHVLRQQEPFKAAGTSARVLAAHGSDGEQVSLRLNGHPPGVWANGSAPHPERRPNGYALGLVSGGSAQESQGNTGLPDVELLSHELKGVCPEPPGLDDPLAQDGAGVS
Chain of Growth hormone secretagogue receptor type 1 (Q92847 whole entry): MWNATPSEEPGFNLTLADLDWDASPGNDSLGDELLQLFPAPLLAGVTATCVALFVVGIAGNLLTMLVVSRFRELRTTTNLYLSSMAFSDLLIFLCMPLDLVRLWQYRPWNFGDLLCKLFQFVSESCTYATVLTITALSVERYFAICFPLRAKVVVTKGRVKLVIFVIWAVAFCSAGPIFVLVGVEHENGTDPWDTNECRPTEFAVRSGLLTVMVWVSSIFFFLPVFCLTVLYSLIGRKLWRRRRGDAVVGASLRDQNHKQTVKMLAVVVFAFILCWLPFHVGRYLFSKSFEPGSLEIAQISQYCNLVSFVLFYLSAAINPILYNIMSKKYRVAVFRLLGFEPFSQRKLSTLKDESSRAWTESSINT
Chain of Mu-type opioid receptor (P35372 whole entry): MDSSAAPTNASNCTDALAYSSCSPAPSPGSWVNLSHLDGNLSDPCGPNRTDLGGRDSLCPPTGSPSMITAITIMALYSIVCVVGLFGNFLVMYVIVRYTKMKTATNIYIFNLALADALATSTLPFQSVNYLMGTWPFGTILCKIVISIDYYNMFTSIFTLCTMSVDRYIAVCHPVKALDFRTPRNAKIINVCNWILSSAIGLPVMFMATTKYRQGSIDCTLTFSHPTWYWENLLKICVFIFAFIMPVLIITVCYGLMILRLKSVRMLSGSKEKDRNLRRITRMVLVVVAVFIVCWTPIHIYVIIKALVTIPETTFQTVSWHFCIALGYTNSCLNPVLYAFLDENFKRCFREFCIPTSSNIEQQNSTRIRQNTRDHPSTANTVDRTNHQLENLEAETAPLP
Chain of Gamma-aminobutyric acid receptor subunit alpha-1 (P62813 whole entry): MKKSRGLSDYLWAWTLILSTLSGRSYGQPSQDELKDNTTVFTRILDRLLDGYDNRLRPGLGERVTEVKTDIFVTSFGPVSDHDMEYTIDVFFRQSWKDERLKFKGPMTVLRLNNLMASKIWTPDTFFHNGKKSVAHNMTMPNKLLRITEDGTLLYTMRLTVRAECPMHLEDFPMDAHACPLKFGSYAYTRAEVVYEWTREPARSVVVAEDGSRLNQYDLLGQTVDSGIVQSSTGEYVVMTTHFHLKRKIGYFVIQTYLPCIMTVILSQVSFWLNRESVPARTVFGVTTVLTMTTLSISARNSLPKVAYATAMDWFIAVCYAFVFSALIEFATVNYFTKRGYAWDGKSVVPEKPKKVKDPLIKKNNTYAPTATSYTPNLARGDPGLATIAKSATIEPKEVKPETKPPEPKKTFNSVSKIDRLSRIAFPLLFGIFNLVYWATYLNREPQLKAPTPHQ

In the case of `N#Cc1ccccc1-c1cc(-c2ccccn2)cn(-c2ccccc2)c1=O`, the AC50 in test [1], in test [2], in [3], in test [4], in test [5] and in [6] was > 30 µM in each case. The AC50 in [7], in test [8], in [9] and in test [10] was > 30 µM throughout.

Consider `N=C(N)NCCCCCCC(=O)NC(O)C(=O)NCCCCNCCCN` (stereo unspecified), for which the AC50 in [1], in test [2], in test [3], in test [4], in test [5] and in test [6] was > 30 µM throughout. For the same compound, the AC50 in [7], in [8], in test [9] and in [10] was > 30 µM throughout.

Turning to `CCCCC1(CC)C(=O)NC(=O)NC1=O` [BUTETHAL], the AC50 in [1], in [2], in test [3], in test [4], in test [5] and in test [6] was > 30 µM each time. Besides, the AC50 in [7], in test [9] and in test [10] was > 30 µM each time.

Regarding `CCN(CC)CCOC(=O)c1ccc(N)cc1Cl` [CHLOROPROCAINE], the AC50 in test [1] is > 30 µM; in test [2], > 30 µM; in test [3], > 30 µM; in [4], > 30 µM; in test [5], > 30 µM; in test [6] it was 29 µM. For the same compound, the AC50 in [7], in test [9] and in test [10] was > 30 µM in each case.

For `Clc1ccc(C(Cn2ccnc2)OCc2ccc(Sc3ccccc3)cc2)c(Cl)c1` (stereo unspecified) [FENTICONAZOLE], the AC50 in test [1] is > 30 µM; in test [2], 30 µM; in [3], > 30 µM; in [4], > 30 µM; in [5], 1.3 µM; in [6] it was > 30 µM. Also, the AC50 in [7], in test [9] and in [10] was > 30 µM in each case.

As for `Nc1nc(F)nc2c1ncn2[C@@H]1O[C@H](COP(=O)(O)O)[C@@H](O)[C@@H]1O` [FLUDARABINE PHOSPHATE], the AC50 in test [1], in test [2], in test [3], in test [4], in test [6] and in test [7] was > 30 µM in each case. Moreover, the AC50 in [8], in test [9] and in test [10] was > 30 µM each time.

On to `O=C(O)c1ccccc1OP(=O)(O)O` [FOSFOSAL], for which the AC50 in test [1], in [2], in test [3], in [4], in test [5] and in test [6] was > 30 µM each time. Also, the AC50 in test [7] and in test [9] was > 30 µM in each case.

In the case of `CC[N+]1(C)CCCC(OC(=O)C(O)(c2ccccc2)c2ccccc2)C1` (stereo unspecified) [PIPENZOLATE], the AC50 is > 30 µM in test [1]; > 30 µM in [2]; > 30 µM in [3]; > 30 µM in test [4]; > 30 µM in test [5]; 0.023 µM in [6]. For the same compound, the AC50 in [8], in test [9] and in test [10] was > 30 µM throughout.

Turning to `CCCNC(C)C(=O)Nc1ccccc1C` (stereo unspecified) [PRILOCAINE], the AC50 in test [1], in [2], in [3], in test [4], in test [5] and in [6] was > 30 µM each time. The AC50 in test [7] is > 30 µM; in test [9] it was > 30 µM; in test [10], 21 µM.

In the case of `CCN(CC)CC(=O)Oc1ccc(NC(C)=O)cc1` [PROPACETAMOL], the AC50 in test [1], in test [3], in [4], in test [5], in [6] and in test [7] was > 30 µM in each case. The AC50 in test [8], in [9] and in test [10] was > 30 µM throughout.

In the case of `Cc1cc2nc3c(=O)[nH]c(=O)nc-3n(C[C@H](O)[C@H](O)[C@H](O)COP(=O)(O)O)c2cc1C` [RIBOFLAVIN 5'-PHOSPHATE], the AC50 is > 30 µM in test [1]; 0.9 µM in [2]; > 30 µM in test [3]; > 30 µM in test [4]; 12 µM in test [7]; > 30 µM in test [8]. Further, the AC50 was 19 µM in [9] and > 30 µM in test [10].

As to `CC(NCCc1ccc(O)cc1)C(O)c1ccc(O)cc1` (stereo unspecified) [RITODRINE], the AC50 was > 30 µM in test [1]; > 30 µM in [2]; > 30 µM in test [3]; 8.1 µM in test [4]; > 10 µM in [6]; > 30 µM in [7]. Besides, the half-maximal activity concentration (AC50) in [8], in test [9] and in test [10] was > 30 µM each time.

On to `Cc1cccc(N(C)C(=S)Oc2ccc3ccccc3c2)c1` [TOLNAFTATE], for which the AC50 in test [1] is > 10 µM; in [2], > 10 µM; in [3], > 10 µM; in test [4], > 30 µM; in test [6], > 10 µM; in test [7], > 30 µM. For the same compound, the AC50 is > 10 µM in test [8], > 30 µM in test [9] and > 10 µM in test [10].

On to `N#C[C@@H]1CCCN1C(=O)CNC12CC3CC(CC(O)(C3)C1)C2` [VILDAGLIPTIN], for which the AC50 in test [1], in test [2], in [3], in [4], in [6] and in test [7] was > 30 µM each time. For the same compound, the AC50 in test [8], in test [9] and in test [10] was > 30 µM throughout.

As a reminder, the AC50 is the midpoint of the concentration-response curve, whichever way the signal moves. Read a high AC50 as weaker potency.

(Values after ChEMBL document CHEMBL5291721, “A preclinical secondary pharmacology resource illuminates target-adverse drug reaction associations of marketed drugs” (Nat Commun, 2023).)
